Experimental data reported in patent US20240400577A1, “MODULATORS OF PROTEIN KINASES” (VIBLIOME THERAPEUTICS, LLC, priority 2021, published 2024).

Tests used:
Experiment in all cases: Kinase panel enzymatic inhibition assay (Nanosyn)
Format in all cases: biochemical
Conditions in all cases: compound 5 μM; ATP at Km; 30-minute pre-incubation
COT1 = target: T1, COT1 (Homo sapiens, UniProt P41279)
T1 construct: purchased Nanosyn (contract screening)
Procedure, shortened: (§1)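 Enzymatic inhibition measured within a panel of at least 300 kinases, using a validated format such as Caliper LabChip mobility shift, ADP detection or time-resolved fluorescence. Compounds tested at 5 μM with ATP at each kinase's Km, after a 30-minute pre-incubation. Values given as percent inhibition or IC50.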

p38a = target: T2, p38a (Homo sapiens, UniProt Q16539)
T2 construct: Nanosyn (contract laboratory that ran the panel)
T2 sequence (Q16539 whole entry): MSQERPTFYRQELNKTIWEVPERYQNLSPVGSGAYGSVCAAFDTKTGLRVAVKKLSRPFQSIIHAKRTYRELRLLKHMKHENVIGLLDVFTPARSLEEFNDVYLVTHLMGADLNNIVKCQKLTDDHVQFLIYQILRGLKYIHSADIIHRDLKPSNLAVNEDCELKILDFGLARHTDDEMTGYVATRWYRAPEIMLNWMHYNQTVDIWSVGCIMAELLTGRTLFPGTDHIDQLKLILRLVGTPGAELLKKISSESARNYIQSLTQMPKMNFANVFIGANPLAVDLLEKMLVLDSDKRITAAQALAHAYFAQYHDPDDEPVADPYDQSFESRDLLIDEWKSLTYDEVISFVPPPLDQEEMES
Procedure, shortened: as §1

Abl1 = target: T3, Abl1 (Homo sapiens, UniProt P00519)
T3 construct: purchased Nanosyn (contract screening)
Procedure, shortened: as §1

MAP4K2 = target: T4, MAP4K2 (Homo sapiens, UniProt Q12851)
T4 construct: purchased Nanosyn (contract screening)
T4 sequence (Q12851 1-820): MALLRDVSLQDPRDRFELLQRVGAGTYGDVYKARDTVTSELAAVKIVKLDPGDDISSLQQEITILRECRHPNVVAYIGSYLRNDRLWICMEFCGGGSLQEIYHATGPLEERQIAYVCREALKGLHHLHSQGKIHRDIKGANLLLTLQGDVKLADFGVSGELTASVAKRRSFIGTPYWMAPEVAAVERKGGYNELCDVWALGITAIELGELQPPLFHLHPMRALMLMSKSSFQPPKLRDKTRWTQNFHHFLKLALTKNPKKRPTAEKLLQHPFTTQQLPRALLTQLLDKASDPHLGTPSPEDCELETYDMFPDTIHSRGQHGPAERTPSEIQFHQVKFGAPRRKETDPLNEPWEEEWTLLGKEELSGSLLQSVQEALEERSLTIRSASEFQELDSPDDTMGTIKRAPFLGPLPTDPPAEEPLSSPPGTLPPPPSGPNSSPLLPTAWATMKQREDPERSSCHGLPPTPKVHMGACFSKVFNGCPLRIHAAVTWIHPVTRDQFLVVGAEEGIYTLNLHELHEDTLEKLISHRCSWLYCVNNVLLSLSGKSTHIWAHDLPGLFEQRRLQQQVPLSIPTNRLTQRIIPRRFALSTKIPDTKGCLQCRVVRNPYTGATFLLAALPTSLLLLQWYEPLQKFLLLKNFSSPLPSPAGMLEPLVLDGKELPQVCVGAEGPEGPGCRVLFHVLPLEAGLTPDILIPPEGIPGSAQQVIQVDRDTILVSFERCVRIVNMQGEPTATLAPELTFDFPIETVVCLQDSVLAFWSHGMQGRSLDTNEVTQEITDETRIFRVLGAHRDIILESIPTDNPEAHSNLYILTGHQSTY
Procedure, shortened: as §1

PIKfyve = target: T5, PIKfyve (Homo sapiens, UniProt Q9Y2I7)
T5 construct: Nanosyn (contract laboratory that ran the panel)
T5 sequence (Q9Y2I7 whole entry): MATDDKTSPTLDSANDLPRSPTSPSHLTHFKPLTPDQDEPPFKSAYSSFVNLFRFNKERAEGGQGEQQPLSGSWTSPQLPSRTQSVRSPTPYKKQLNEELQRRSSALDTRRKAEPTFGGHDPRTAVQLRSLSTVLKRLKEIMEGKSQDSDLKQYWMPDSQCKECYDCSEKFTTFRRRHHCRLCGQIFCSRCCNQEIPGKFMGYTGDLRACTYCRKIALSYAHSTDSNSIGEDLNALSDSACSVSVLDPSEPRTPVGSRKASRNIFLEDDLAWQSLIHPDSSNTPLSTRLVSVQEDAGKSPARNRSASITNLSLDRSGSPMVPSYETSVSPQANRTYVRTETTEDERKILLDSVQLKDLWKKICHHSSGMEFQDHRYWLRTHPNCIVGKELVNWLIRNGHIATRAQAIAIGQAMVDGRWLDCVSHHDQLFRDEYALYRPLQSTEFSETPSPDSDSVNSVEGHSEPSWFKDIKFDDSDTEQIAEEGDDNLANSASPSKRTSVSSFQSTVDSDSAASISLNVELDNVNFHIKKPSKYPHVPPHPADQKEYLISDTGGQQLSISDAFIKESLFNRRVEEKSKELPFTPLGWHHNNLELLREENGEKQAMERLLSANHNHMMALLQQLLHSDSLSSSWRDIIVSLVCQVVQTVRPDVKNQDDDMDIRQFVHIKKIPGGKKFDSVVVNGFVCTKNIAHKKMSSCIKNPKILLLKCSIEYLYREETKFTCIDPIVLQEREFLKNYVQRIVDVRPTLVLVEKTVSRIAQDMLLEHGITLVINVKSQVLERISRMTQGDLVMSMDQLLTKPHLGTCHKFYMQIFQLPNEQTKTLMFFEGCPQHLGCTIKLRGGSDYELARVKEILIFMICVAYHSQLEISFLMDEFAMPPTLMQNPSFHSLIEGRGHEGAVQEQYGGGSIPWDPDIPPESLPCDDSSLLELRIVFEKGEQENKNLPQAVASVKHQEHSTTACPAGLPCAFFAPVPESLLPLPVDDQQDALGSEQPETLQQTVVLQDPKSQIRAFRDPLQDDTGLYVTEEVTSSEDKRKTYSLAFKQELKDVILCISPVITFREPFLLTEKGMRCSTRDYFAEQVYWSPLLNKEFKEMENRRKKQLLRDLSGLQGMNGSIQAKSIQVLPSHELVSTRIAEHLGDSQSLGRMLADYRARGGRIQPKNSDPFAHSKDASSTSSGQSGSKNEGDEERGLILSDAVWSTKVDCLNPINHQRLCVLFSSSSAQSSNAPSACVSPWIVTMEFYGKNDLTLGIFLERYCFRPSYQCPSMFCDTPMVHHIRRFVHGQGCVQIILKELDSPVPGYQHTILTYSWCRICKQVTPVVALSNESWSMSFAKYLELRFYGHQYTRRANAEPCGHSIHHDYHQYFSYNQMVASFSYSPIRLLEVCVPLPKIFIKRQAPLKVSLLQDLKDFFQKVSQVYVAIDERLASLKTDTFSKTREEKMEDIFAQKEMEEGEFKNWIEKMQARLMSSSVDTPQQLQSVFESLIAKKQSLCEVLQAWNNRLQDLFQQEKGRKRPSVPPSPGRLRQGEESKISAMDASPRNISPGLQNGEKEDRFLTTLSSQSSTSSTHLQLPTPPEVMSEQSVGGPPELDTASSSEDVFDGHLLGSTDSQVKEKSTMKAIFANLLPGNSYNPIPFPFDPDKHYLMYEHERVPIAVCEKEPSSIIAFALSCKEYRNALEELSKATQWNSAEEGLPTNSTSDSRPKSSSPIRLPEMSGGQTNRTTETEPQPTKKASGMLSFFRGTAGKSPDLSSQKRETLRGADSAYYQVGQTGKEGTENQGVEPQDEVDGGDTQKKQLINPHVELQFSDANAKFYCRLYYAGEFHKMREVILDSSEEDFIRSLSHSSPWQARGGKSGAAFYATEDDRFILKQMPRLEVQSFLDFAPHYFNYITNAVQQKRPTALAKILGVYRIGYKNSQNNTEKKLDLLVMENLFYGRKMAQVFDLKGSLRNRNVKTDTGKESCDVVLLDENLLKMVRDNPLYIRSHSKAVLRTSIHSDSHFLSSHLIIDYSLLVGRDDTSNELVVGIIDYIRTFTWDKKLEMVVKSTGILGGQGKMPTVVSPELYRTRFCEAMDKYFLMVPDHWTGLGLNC
Procedure, shortened: as §1

PDGFRb = target: T6, PDGFRb (Homo sapiens, UniProt P09619)
T6 construct: Nanosyn (contract laboratory that ran the panel)
Procedure, shortened: as §1

CSK = target: T7, CSK (Homo sapiens, UniProt P41240)
T7 construct: purchased Nanosyn (contract screening)
Procedure, shortened: as §1

RET = target: T8, RET (Homo sapiens, UniProt P07949)
T8 construct: Nanosyn (contract laboratory that ran the panel)
T8 sequence (P07949 29-1114): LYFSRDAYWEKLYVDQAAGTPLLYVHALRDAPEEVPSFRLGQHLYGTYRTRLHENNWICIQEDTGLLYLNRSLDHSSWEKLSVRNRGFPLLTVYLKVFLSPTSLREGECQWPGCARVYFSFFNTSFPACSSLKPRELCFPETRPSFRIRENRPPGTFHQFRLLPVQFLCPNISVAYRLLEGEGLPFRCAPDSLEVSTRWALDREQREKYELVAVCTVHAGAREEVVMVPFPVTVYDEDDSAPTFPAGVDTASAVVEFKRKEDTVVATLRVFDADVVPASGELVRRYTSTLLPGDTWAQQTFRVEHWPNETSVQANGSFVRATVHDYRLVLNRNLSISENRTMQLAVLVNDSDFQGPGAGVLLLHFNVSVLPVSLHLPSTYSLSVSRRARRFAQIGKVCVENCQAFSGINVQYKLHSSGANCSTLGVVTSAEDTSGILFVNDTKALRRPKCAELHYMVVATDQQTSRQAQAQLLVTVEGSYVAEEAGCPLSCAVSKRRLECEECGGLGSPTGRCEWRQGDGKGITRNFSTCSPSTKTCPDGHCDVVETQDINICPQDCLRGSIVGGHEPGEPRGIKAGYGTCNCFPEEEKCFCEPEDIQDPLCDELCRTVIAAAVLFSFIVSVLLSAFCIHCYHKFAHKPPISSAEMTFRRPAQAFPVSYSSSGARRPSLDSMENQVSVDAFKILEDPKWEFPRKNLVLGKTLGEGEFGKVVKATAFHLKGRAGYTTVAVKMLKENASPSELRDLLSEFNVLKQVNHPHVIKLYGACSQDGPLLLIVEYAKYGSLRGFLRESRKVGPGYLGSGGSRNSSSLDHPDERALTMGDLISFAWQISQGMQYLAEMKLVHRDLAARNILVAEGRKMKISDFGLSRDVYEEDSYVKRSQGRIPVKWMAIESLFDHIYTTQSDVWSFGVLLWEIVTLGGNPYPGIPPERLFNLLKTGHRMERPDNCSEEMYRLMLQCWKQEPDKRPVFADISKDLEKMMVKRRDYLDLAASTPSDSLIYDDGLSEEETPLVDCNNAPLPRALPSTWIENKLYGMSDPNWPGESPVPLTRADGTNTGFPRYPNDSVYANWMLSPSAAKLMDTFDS
Procedure, shortened: as §1

CLK4 = target: T9, CLK4 (Homo sapiens, UniProt Q9HAZ1)
T9 construct: purchased Nanosyn (contract screening)
T9 sequence (Q9HAZ1 whole entry): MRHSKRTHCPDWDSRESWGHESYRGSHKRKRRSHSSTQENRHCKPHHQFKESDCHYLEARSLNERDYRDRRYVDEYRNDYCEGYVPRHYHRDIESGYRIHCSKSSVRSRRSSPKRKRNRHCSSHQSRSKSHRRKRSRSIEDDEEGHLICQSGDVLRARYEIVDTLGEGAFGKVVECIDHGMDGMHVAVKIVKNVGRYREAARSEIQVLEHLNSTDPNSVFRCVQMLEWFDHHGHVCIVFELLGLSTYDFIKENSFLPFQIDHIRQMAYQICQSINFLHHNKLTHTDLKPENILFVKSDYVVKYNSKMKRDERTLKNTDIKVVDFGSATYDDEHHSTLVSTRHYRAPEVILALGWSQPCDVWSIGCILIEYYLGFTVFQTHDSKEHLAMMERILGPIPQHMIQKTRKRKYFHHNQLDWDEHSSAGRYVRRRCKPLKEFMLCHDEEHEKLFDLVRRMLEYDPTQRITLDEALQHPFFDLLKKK
Procedure, shortened: as §1

LYNa = target: T10, LYNa (Homo sapiens, UniProt P07948)
T10 construct: purchased Nanosyn (contract screening)
Procedure, shortened: as §1

ZAK = target: T11, ZAK (Homo sapiens, UniProt Q9NYL2)
T11 construct: Nanosyn (contract laboratory that ran the panel)
Procedure, shortened: as §1

LCK = target: T12, LCK (Homo sapiens, UniProt P06239)
T12 construct: purchased Nanosyn (contract screening)
Procedure, shortened: as §1

BRK = target: T13, BRK (Homo sapiens, UniProt Q13882)
T13 construct: purchased Nanosyn (contract screening)
Procedure, shortened: as §1

HCK = target: T14, HCK (Homo sapiens, UniProt P08631)
T14 construct: purchased Nanosyn (contract screening)
T14 sequence (P08631 whole entry): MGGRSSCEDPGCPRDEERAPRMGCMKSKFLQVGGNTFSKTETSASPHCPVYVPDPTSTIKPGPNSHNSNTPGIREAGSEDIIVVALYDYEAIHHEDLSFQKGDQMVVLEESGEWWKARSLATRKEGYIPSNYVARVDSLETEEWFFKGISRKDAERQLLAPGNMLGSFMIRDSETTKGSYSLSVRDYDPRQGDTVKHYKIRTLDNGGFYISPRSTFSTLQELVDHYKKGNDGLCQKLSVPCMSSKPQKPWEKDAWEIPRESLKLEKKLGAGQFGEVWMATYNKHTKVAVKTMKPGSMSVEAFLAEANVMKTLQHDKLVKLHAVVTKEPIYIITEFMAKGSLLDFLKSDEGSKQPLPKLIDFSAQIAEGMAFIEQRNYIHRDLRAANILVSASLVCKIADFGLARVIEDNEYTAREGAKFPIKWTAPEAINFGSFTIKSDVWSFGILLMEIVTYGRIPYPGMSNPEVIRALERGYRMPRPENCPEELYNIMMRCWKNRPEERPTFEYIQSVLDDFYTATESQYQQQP
Procedure, shortened: as §1

KIT = target: T15, KIT (Homo sapiens, UniProt P10721)
T15 construct: purchased Nanosyn (contract screening)
Procedure, shortened: as §1

ARAF = target: T16, ARAF (Homo sapiens, UniProt P10398)
T16 construct: purchased Nanosyn (contract screening)
T16 sequence (P10398 1-606): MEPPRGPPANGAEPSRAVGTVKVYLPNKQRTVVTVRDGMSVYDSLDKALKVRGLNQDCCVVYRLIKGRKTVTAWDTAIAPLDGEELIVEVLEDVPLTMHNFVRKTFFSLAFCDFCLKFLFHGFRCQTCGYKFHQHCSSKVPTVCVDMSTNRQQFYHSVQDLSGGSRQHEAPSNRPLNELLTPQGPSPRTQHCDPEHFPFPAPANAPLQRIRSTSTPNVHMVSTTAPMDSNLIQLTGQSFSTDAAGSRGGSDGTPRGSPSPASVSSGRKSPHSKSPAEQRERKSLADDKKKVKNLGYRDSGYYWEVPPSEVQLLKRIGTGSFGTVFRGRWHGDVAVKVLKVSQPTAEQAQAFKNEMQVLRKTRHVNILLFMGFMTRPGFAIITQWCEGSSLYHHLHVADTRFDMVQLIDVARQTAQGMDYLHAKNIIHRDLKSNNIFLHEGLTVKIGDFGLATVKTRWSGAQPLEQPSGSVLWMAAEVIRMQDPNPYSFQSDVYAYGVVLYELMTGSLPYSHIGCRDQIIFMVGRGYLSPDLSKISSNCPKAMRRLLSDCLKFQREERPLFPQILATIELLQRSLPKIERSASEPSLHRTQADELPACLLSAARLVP
Procedure, shortened: as §1

FYN = target: T17, FYN (Homo sapiens, UniProt P06241)
T17 construct: purchased Nanosyn (contract screening)
T17 sequence (P06241 whole entry): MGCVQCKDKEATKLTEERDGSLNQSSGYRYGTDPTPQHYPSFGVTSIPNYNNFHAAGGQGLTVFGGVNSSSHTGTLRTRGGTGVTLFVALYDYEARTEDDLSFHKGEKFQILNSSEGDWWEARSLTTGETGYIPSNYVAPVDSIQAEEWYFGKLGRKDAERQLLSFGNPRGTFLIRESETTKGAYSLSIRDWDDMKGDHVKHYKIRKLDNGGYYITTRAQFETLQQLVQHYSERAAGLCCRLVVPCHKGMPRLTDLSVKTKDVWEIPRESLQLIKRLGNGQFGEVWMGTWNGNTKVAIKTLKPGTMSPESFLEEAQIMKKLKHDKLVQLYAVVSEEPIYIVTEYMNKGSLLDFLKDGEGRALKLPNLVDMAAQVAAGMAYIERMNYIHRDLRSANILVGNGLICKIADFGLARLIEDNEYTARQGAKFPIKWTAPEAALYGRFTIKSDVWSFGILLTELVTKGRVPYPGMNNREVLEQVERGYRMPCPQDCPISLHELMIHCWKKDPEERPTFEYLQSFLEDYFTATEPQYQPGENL
Procedure, shortened: as §1

inhibition at 5 µM (COT1): < 79%
inhibition at 5 µM (p38a): ≥ 95%
inhibition at 5 µM (Abl1): ≥ 95%
inhibition at 5 µM (MAP4K2): < 79%
inhibition at 5 µM (PIKfyve): < 79%
inhibition at 5 µM (PDGFRb): 90 to 94%
inhibition at 5 µM (CSK): < 79%
inhibition at 5 µM (RET): 80 to 89%
inhibition at 5 µM (CLK4): < 79%
inhibition at 5 µM (LYNa): ≥ 95%
inhibition at 5 µM (ZAK): < 79%
inhibition at 5 µM (LCK): ≥ 95%
inhibition at 5 µM (BRK): < 79%
inhibition at 5 µM (HCK): ≥ 95%
inhibition at 5 µM (KIT): 80 to 89%
inhibition at 5 µM (ARAF): < 79%
inhibition at 5 µM (FYN): ≥ 95%
SMILES: CCOC(=O)Nc1cn2nc(Nc3cc(NC(=O)c4cc([S+](C)[O-])n(-c5ccc(F)cc5)n4)ccc3C)ccc2n1 (centres unmarked) [Ex18, ethyl (6-((5-(1-(4-fluorophenyl)-5-(methylsulfinyl)-1H-pyrazole-3-carboxamido)-2-methylphenyl)amino)imidazo[1,2-b]pyridazin-2-yl)carbamate]
